Reference: patent US20180320217A1, “METHODS FOR SAMPLING AND MEASURING ORAL LAVAGE PROTEINS” (The Procter & Gamble Company, priority 2017, published 2018)
“And” between values parts separate entries of the source, which are not always exact repeats. Equal entries are not always repeated. “Also recorded” adds a separate entry of the source.

Experiments:
diaphorase [1] = test: Formation of formazan dyes: NADH and diaphorase, absence of malate (TABLE 7); type: biochemical, Clostridium kluyveri; conditions: NADH and diaphorase, absence of malate
diaphorase [2] = test: Formation of formazan dyes: NADH, diaphorase and malate (TABLE 8); type: biochemical, Clostridium kluyveri
[3] = tested on: Malate dehydrogenase and diaphorase; test: Formation of formazan dyes: Malate dehydrogenase and diaphorase, absence of malate (TABLE 9); type: biochemical, pig heart
[4] = tested on: Malate dehydrogenase and diaphorase; test: Formation of formazan dyes: Malate dehydrogenase, diaphorase and malate (TABLE 10); type: biochemical, pig heart
oral lavage [5] = test: Formation of formazan dyes: oral lavage and diaphorase, not malate (TABLE 11); type: biochemical, human
oral lavage [6] = test: Formation of formazan dyes: oral lavage, malate and diaphorase (TABLE 12); type: biochemical, human; conditions: oral lavage, malate and diaphorase
diaphorase [7] = test: Formation of formazan dyes: only diaphorase, not malate (TABLE 13); type: biochemical, Clostridium kluyveri; conditions: mean of three experiments
diaphorase [8] = test: Formation of formazan dyes: only diaphorase and malate (TABLE 14); type: biochemical, Clostridium kluyveri; conditions: mean of three experiments
[9] = Formation of formazan dyes: NADH and 1-methoxy PMS, absence of malate (TABLE 15); type: biochemical; conditions: monosodium salt
[10] = Formation of formazan dyes: NADH, malate and 1-methoxy PMS (TABLE 16); type: biochemical; conditions: monosodium salt
oral lavage [11] = test: Formation of formazan dyes: oral lavage and 1-Methoxy PMS, absence of malate (TABLE 19); type: biochemical, human; conditions: monosodium salt
oral lavage [12] = test: Formation of formazan dyes: oral lavage, malate and 1-Methoxy PMS (TABLE 20); type: biochemical, human; conditions: monosodium salt
[13] = Formation of formazan dyes: control buffer and 1-Methoxy PMS, absence of malate (TABLE 21); type: biochemical; conditions: monosodium salt
[14] = Formation of formazan dyes: control buffer, malate and 1-Methoxy PMS (TABLE 22); type: biochemical
Malate dehydrogenase [15] = biological target: T1, Malate dehydrogenase (Sus scrofa, UniProt P00346); test: Formation of formazan dyes: Malate dehydrogenase and 1-Methoxy PMS, absence of malate (TABLE 17); type: biochemical, pig heart; set-up: L-malate dehydrogenase (pig heart); purchased Sigma-Aldrich 10127248001 / 10127914001
T1 sequence (P00346 25-338): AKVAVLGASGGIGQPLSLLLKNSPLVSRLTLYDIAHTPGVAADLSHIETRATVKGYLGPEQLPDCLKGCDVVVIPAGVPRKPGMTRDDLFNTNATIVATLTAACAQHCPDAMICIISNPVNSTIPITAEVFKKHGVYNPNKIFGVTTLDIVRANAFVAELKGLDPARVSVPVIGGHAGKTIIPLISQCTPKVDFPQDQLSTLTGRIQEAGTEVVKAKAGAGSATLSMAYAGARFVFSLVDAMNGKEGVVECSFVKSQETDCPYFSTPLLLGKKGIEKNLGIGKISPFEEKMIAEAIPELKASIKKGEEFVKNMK

Malate dehydrogenase [16] = biological target: T1, Malate dehydrogenase; test: Formation of formazan dyes: Malate dehydrogenase, malate and 1-Methoxy PMS (TABLE 18); type: biochemical, pig heart; set-up: L-malate dehydrogenase (pig heart); purchased Sigma-Aldrich 10127248001 / 10127914001; conditions: monosodium salt

O=[N+]([O-])c1ccc(-[n+]2nc(-c3ccc(S(=O)(=O)[O-])cc3S(=O)(=O)[O-])nn2-c2ccc(I)cc2)cc1.[Na+] [WST-1, 2-(4-Iodophenyl)-3-(4-nitrophenyl)-5-(2,4-disulfophenyl)-2H-tetrazolium, monosodium salt]
Formation of formazan dyes, absorbance, Means 0 h (diaphorase [1]; 0 h): 3.54 | Formation of formazan dyes, absorbance, Means 1 h (diaphorase [1]; 1 h): 3.60 | Formation of formazan dyes, absorbance, Means 2 h (diaphorase [1]; 2 h): 3.59 | Formation of formazan dyes, absorbance, Means 3 h (diaphorase [1]; 3 h): 3.60 | Formation of formazan dyes, absorbance, Means 4 h (diaphorase [1]; 4 h): 3.59 | Formation of formazan dyes, absorbance, Means 6 h (diaphorase [1]; 6 h): 3.59 | Formation of formazan dyes, absorbance, Means 8 h (diaphorase [1]; 8 h): 3.55 | Formation of formazan dyes, absorbance, Means 10 h (diaphorase [1]; 10 h): 3.52 | Formation of formazan dyes, absorbance, Means 12 h (diaphorase [1]; 12 h): 3.45 | Formation of formazan dyes, absorbance, Means 0 h (diaphorase [2]; NADH, diaphorase and malate, 0 h): 2.63 | Formation of formazan dyes, absorbance, Means 1 h (diaphorase [2]; NADH, diaphorase and malate, 1 h): 2.60 | Formation of formazan dyes, absorbance, Means 2 h (diaphorase [2]; NADH, diaphorase and malate, 2 h): 2.59 | Formation of formazan dyes, absorbance, Means 3 h (diaphorase [2]; NADH, diaphorase and malate, 3 h): 2.57 | Formation of formazan dyes, absorbance, Means 4 h (diaphorase [2]; NADH, diaphorase and malate, 4 h): 2.55 | Formation of formazan dyes, absorbance, Means 6 h (diaphorase [2]; NADH, diaphorase and malate, 6 h): 2.52 | Formation of formazan dyes, absorbance, Means 8 h (diaphorase [2]; NADH, diaphorase and malate, 8 h): 2.48 | Formation of formazan dyes, absorbance, Means 10 h (diaphorase [2]; NADH, diaphorase and malate, 10 h): 2.44 | Formation of formazan dyes, absorbance, Means 12 h (diaphorase [2]; NADH, diaphorase and malate, 12 h): 2.38 | level reduced to formazan dyes in the presence of malate (diaphorase [2]; TABLE 8 compared with TABLE 7): lower level | Formation of formazan dyes, absorbance, Means 0 h ([3]; Malate dehydrogenase and diaphorase, absence of malate, 0 h): 0.76 | Formation of formazan dyes, absorbance, Means 1 h ([3]; Malate dehydrogenase and diaphorase, absence of malate, 1 h): 1.13 | Formation of formazan dyes, absorbance, Means 2 h ([3]; Malate dehydrogenase and diaphorase, absence of malate, 2 h): 1.28 | Formation of formazan dyes, absorbance, Means 3 h ([3]; Malate dehydrogenase and diaphorase, absence of malate, 3 h): 1.38 | Formation of formazan dyes, absorbance, Means 4 h ([3]; Malate dehydrogenase and diaphorase, absence of malate, 4 h): 1.47 | Formation of formazan dyes, absorbance, Means 6 h ([3]; Malate dehydrogenase and diaphorase, absence of malate, 6 h): 1.60 | Formation of formazan dyes, absorbance, Means 8 h ([3]; Malate dehydrogenase and diaphorase, absence of malate, 8 h): 1.71 | Formation of formazan dyes, absorbance, Means 10 h ([3]; Malate dehydrogenase and diaphorase, absence of malate, 10 h): 1.78 | Formation of formazan dyes, absorbance, Means 12 h ([3]; Malate dehydrogenase and diaphorase, absence of malate, 12 h): 1.75 | reduction of tetrazolium dye in the absence of substrate malate ([3]; malate dehydrogenase and diaphorase (TABLE 9)): partially reduced | Formation of formazan dyes, absorbance, Means 0 h ([4]; Malate dehydrogenase, diaphorase and malate, 0 h): 0.84 | Formation of formazan dyes, absorbance, Means 1 h ([4]; Malate dehydrogenase, diaphorase and malate, 1 h): 1.15 | Formation of formazan dyes, absorbance, Means 2 h ([4]; Malate dehydrogenase, diaphorase and malate, 2 h): 1.31 | Formation of formazan dyes, absorbance, Means 3 h ([4]; Malate dehydrogenase, diaphorase and malate, 3 h): 1.44 | Formation of formazan dyes, absorbance, Means 4 h ([4]; Malate dehydrogenase, diaphorase and malate, 4 h): 1.53 | Formation of formazan dyes, absorbance, Means 6 h ([4]; Malate dehydrogenase, diaphorase and malate, 6 h): 1.69 | Formation of formazan dyes, absorbance, Means 8 h ([4]; Malate dehydrogenase, diaphorase and malate, 8 h): 1.81 | Formation of formazan dyes, absorbance, Means 10 h ([4]; Malate dehydrogenase, diaphorase and malate, 10 h): 1.90 | Formation of formazan dyes, absorbance, Means 12 h ([4]; Malate dehydrogenase, diaphorase and malate, 12 h): 1.96 | conversion to reduced formazan dyes ([4]; malate dehydrogenase, diaphorase and malate (TABLE 10), monosodium salt): converted to reduced formazan dyes in a time-dependent fashion; also recorded: able to catalyze the reduction | Formation of formazan dyes, absorbance, Means 0 h (oral lavage [5]; oral lavage and diaphorase, not malate, 0 h): 1.01 | Formation of formazan dyes, absorbance, Means 1 h (oral lavage [5]; oral lavage and diaphorase, not malate, 1 h): 1.24 | Formation of formazan dyes, absorbance, Means 2 h (oral lavage [5]; oral lavage and diaphorase, not malate, 2 h): 1.28 | Formation of formazan dyes, absorbance, Means 3 h (oral lavage [5]; oral lavage and diaphorase, not malate, 3 h): 1.30 | Formation of formazan dyes, absorbance, Means 4 h (oral lavage [5]; oral lavage and diaphorase, not malate, 4 h): 1.29 | Formation of formazan dyes, absorbance, Means 6 h (oral lavage [5]; oral lavage and diaphorase, not malate, 6 h): 1.42 | Formation of formazan dyes, absorbance, Means 8 h (oral lavage [5]; oral lavage and diaphorase, not malate, 8 h): 1.34 | Formation of formazan dyes, absorbance, Means 10 h (oral lavage [5]; oral lavage and diaphorase, not malate, 10 h): 1.31 | Formation of formazan dyes, absorbance, Means 12 h (oral lavage [5]; oral lavage and diaphorase, not malate, 12 h): 1.42 | reduction to formazan dyes by pooled oral lavage (oral lavage [5]; pooled oral lavage of high bleeder group, diaphorase, no added malate (TABLE 11)): partially reduced to formazan dyes | Formation of formazan dyes, absorbance, Means 0 h (oral lavage [6]; 0 h): 0.88 | Formation of formazan dyes, absorbance, Means 1 h (oral lavage [6]; 1 h): 1.19 | Formation of formazan dyes, absorbance, Means 2 h (oral lavage [6]; 2 h): 1.19 | Formation of formazan dyes, absorbance, Means 3 h (oral lavage [6]; 3 h): 1.23 | Formation of formazan dyes, absorbance, Means 4 h (oral lavage [6]; 4 h): 1.39 | Formation of formazan dyes, absorbance, Means 6 h (oral lavage [6]; 6 h): 1.31 | Formation of formazan dyes, absorbance, Means 8 h (oral lavage [6]; 8 h): 1.52 | Formation of formazan dyes, absorbance, Means 10 h (oral lavage [6]; 10 h): 1.61 | Formation of formazan dyes, absorbance, Means 12 h (oral lavage [6]; 12 h): 1.75 | Absorbance, formation of formazan dyes (Means) (diaphorase [7]; 0 h): 0.41 | Absorbance, formation of formazan dyes (Means) (diaphorase [7]; 1 h): 0.60 | Absorbance, formation of formazan dyes (Means) (diaphorase [7]; 2 h): 0.66 | Absorbance, formation of formazan dyes (Means) (diaphorase [7]; 3 h): 0.69 | Absorbance, formation of formazan dyes (Means) (diaphorase [7]; 4 h): 0.70 | Absorbance, formation of formazan dyes (Means) (diaphorase [7]; 6 h): 0.71 | Absorbance, formation of formazan dyes (Means) (diaphorase [7]; 8 h): 0.73 | Absorbance, formation of formazan dyes (Means) (diaphorase [7]; 10 h): 0.69 | Absorbance, formation of formazan dyes (Means) (diaphorase [7]; 12 h): 0.67 | Absorbance, formation of formazan dyes (Means) (diaphorase [8]; 0 h): 0.20 | Absorbance, formation of formazan dyes (Means) (diaphorase [8]; 1 h): 0.22 | Absorbance, formation of formazan dyes (Means) (diaphorase [8]; 2 h): 0.23 | Absorbance, formation of formazan dyes (Means) (diaphorase [8]; 3 h): 0.24 | Absorbance, formation of formazan dyes (Means) (diaphorase [8]; 4 h): 0.24 | Absorbance, formation of formazan dyes (Means) (diaphorase [8]; 6 h): 0.25 | Absorbance, formation of formazan dyes (Means) (diaphorase [8]; 8 h): 0.26 | Absorbance, formation of formazan dyes (Means) (diaphorase [8]; 10 h): 0.27 | Absorbance, formation of formazan dyes (Means) (diaphorase [8]; 12 h): 0.27 | Absorbance, formation of formazan dyes (Means) [9]: 2.52 and 2.71 and 2.59 and 2.80 | Absorbance, formation of formazan dyes (Means) [10]: 1.83 and 1.81 and 1.79 | Absorbance, formation of formazan dyes (Means) (oral lavage [11]): 1.19 and 1.52 and 1.61 and 1.76 | Absorbance, formation of formazan dyes (Means) (oral lavage [12]): 1.20 and 1.68 and 2.01 and 2.32 | Absorbance, formation of formazan dyes (Means) [13]: 0.53 and 0.74 and 0.65 and 0.88 | Means absorbance 0 h [14]: 0.31 | Means absorbance 1 h [14]: 0.31 | Means absorbance 2 h [14]: 0.32 | Means absorbance 3 h [14]: 0.32 | reduction by malate dehydrogenase alone (Malate dehydrogenase [15]): did not catalyze the reduction | Absorbance, formation of formazan dyes (Means) (Malate dehydrogenase [15]; monosodium salt): 0.51 and 0.71 and 0.59 and 0.90 | Absorbance, formation of formazan dyes (Means) (Malate dehydrogenase [16]): 0.51 and 0.64 and 0.72 and 0.79
